The record followed here is US8198279B2, “Pyrido[2,3-b]pyrazin-8-substituted compounds and their use” (Institute of Cancer Research: Royal Cancer Hospital (The), priority 2007, dated 2012).

Several values for one entry are separate records, joined by “and”; a condition that tells them apart may be missing. Equal entries are not always repeated. A value given as a limit tells only on which side of the number the result lay.

One may read the IC50 as the concentration at which inhibition is half-maximal. Read a high IC50 as weaker potency.

In this assay the target is T1, B-RAF (Homo sapiens, UniProt P15056, V600E).
T1 construct: made in house
T1 sequence (P15056 whole entry V600E): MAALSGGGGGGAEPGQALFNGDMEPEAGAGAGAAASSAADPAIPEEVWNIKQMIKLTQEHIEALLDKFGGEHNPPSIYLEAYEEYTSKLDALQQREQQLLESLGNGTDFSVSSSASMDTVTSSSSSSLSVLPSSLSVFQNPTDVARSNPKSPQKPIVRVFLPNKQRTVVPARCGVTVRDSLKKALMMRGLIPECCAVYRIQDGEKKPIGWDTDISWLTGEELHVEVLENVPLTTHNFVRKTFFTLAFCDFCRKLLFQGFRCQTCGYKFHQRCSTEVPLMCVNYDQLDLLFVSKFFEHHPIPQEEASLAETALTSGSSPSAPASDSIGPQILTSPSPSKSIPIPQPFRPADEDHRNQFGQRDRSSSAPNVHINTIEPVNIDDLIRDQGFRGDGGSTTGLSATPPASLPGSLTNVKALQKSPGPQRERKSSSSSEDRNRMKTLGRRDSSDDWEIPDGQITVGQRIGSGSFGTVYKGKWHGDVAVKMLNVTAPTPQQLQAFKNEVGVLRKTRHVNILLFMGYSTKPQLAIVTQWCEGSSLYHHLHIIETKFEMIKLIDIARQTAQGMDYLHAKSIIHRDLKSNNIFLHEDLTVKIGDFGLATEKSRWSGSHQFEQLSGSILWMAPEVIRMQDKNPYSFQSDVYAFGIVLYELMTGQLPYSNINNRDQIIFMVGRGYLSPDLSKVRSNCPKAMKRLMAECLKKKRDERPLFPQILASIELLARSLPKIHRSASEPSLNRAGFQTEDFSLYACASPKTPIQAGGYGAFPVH
In words: DELFIA Kinase Assay. The class given is biochemical. To be noted: 100 μM ATP, GST-MEK substrate. On the procedure: Biological Methods—DELFIA Kinase Assay
Compounds were assessed by a kinase assay performed according to the following protocol.
DKB1 (DKB with B-RAF and MEK Protein):
Combine 4950 μL of DKB and 50 μL of 2.5 mg/ml GST-MEK stock (to give […] of MEK per 40 μL). Then add 22.5 μL of B-RAF to give ˜0.2 μL of B-RAF per 40 μL.
100 mM stock, dilute to 500 μM to give 100 μM final concentration in assay.
• 1. Preblock wells with 5% milk in TBS for 1 hour. • 2. Wash wells with 3× with 200 μL TBS. • 3. Plate out 40 μL of DKB1 for all inhibitors (test compounds), DMSO control, and optionally other control compounds. • 4. Plate out 40 μL of DKB2 for BO and EV wells. • 5. Add inhibitors (test compounds) at 0.5 μL per well according to desired plate layout. • 6. Add 0.5 μL DMSO to vehicle control wells. • 7. Add 2 μL of B-RAF to BO and EV wells. • 8. Pre-incubate with inhibitors (test compounds) for 10 minutes at room temperature with shaking. • 9. Add 10 μL of 500 μM ATP stock, in DKB, to give 100 μM assay concentration. • 10. Seal plates with TopSeal and incubate at room temperature with shaking for 45 minutes. • 11. Wash plates 3× with 200 μL 0.1% Tween20/Water to terminate reaction. • 12. Add 50 μL per well of antibody mix and incubate for 1 hour at room temperature with shaking. • 13. Wash plates 3× with 200 μL 0.1% Tween20/Water. • 14. Add 100 μL DELFIA enhancement solution per well, cover in foil, and incubate at room temperature for 30 minutes with shaking. • 15. Read on Victor using Europium protocol.
Values for the blank (Empty Vector) are subtracted from all values. The DMSO controls are set as 100% activity and assay points (the response) are calculated as a percentage of the DMSO control. Data are plotted using Graphpad Prism software and a non-linear regression line is calculated using a variable slope sigmoidal dose-response equation (Y=Bottom+(Top−Bottom)/(1+10^((LogEC50−X)*HillSlope)) where X is the logarithm of concentration. Y is the response). The IC50 generated by this procedure is the concentration of the drug that produces a percentage control fluorescence value midway between the saturation, and zero-effect plateaus. Three independent assays are usually performed and the mean IC50 is reported.
Take `CC(C)(C)c1cc(NC(=O)Nc2ccc(Oc3ccnc4[nH]c(=O)cnc34)c3ccccc23)n(-c2ccccc2)n1` [AA-008, 1-(3-tert-butyl-1-phenyl-1H-pyrazol-5-yl)-3-(4-(3-oxo-3,4-dihydropyrido[2,3-b]pyrazin-8-yloxy)naphthalen-1-yl)urea]: the IC50 is less than 100 nM.

`Cc1ccc(-n2nc(C(C)(C)C)cc2NC(=O)Nc2ccc(Oc3ccnc4[nH]c(=O)cnc34)c3ccccc23)cc1` [AA-010, 1-(3-tert-butyl-1-p-tolyl-1H-pyrazol-5-yl)-3-(4-(3-oxo-3,4-dihydropyrido[2,3-b]pyrazin-8-yloxy)naphthalen-1-yl)urea] came in with an IC50 of less than 100 nM. To `CSc1cc(Oc2ccnc3[nH]c(=O)cnc23)ccc1NC(=O)Nc1ccc(Cl)c(C(F)(F)F)c1` [AA-023] belongs less than 100 nM; to `CSc1cc(Oc2ccnc3[nH]c(=O)c(=O)[nH]c23)ccc1NC(=O)Nc1ccc(Cl)c(C(F)(F)F)c1` [AA-051, 1-(4-chloro-3-(trifluoromethyl)phenyl)-3-(4-(2,3-dioxo-1,2,3,4-tetrahydropyrido[2,3-b]pyrazin-8-yloxy)-2-(methylthio)phenyl)urea], less than 100 nM; to `Cc1ccc(-n2nc(C(C)(C)C)cc2NC(=O)Nc2cccc(Oc3ccnc4[nH]c(=O)cnc34)c2)cc1` [AA-006, 1-(3-tert-butyl-1-p-tolyl-1H-pyrazol-5-yl)-3-(3-(3-oxo-3,4-dihydropyrido[2,3-b]pyrazin-8-yloxy)phenyl)urea], less than 100 nM. The compound `O=C(Nc1ccc(Cl)c(C(F)(F)F)c1)Nc1ccc(Oc2ccnc3ncc(=O)[nH]c23)cc1F` [AA-048, 1-(4-Chloro-3-(trifluoromethyl)phenyl)-3-(2-fluoro-4-(2-oxo-1,2-dihydropyrido[2,3-b]pyrazin-8-yloxy)phenyl)urea] displayed an IC50 of less than 100 nM. The value for `Cc1nc2c(Oc3cccc(NC(=O)c4cccc(OC(F)(F)F)c4)c3)ccnc2[nH]c1=O` [AA-004] was less than 100 nM; that for `CC(C)(C)c1cccc(C(=O)Nc2cccc(Oc3ccnc4[nH]c(=O)cnc34)c2)c1` [AA-003, 3-tert-butyl-N-(3-(3-oxo-3,4-dihydropyrido[2,3-b]pyrazin-8-yloxy)phenyl)benzamide] was less than 100 nM; that for `CSc1cc(Oc2ccnc3[nH]c(=O)cnc23)ccc1NC(=O)Nc1cc(C(C)(C)C)nn1-c1ccc(C)cc1` [AA-017, 1-(3-tert-butyl-1-p-tolyl-1H-pyrazol-5-yl)-3-(2-(methylthio)-4-(3-oxo-3,4-dihydropyrido[2,3-b]pyrazin-8-yloxy)phenyl)urea] was less than 100 nM. The value for `CC(C)(C)c1cc(NC(=O)Nc2ccc(Oc3ccnc4[nH]c(=O)cnc34)cc2F)n(-c2ccccc2)n1` [AA-019, 1-(3-tert-butyl-1-phenyl-1H-pyrazol-5-yl)-3-(2-fluoro-4-(3-oxo-3,4-dihydropyrido[3,2-b]pyrazin-8-yloxy)phenyl)urea] was less than 100 nM; that for `Cc1ccc(-n2nc(C(C)(C)C)cc2NC(=O)Nc2ccc(Oc3ccnc4ncc(=O)[nH]c34)cc2)cc1` [AA-040, 1-(3-tert-butyl-1-p-tolyl-1H-pyrazol-5-yl)-3-(4-(2-oxo-1,2-dihydropyrido[2,3-b]pyrazin-8-yloxy)phenyl)urea] was 100 to 1000 nM.

`O=C(Nc1ccc(Oc2ccnc3nc(N4CCOCC4)cnc23)cc1F)Nc1cc(C(F)(F)F)ccc1F` [AA-054, 1-(2-Fluoro-4-(3-morpholinopyrido[2,3-b]pyrazin-8-yloxy)phenyl)-3-(2-fluoro-5-(trifluoromethyl)phenyl)urea] gave an IC50 of less than 100 nM. The value for `O=C(Nc1cccc(Oc2ccnc3ncc(=O)[nH]c23)c1)Nc1cc(C(F)(F)F)ccc1F` [AA-032, 1-(2-fluoro-5-(trifluoromethyl)phenyl)-3-(3-(2-oxo-1,2-dihydropyrido[2,3-b]pyrazin-8-yloxy)phenyl)urea] was less than 100 nM; that for `Cc1ccc(-n2nc(C(C)(C)C)cc2NC(=O)Nc2ccc(Oc3ccnc4[nH]c(=O)cnc34)cc2F)cc1` [AA-018, 1-(3-tert-butyl-1-p-tolyl-1H-pyrazol-5-yl)-3-(2-fluoro-4-(3-oxo-3,4-dihydropyrido[3,2-b]pyrazin-8-yloxy)phenyl)urea] was less than 100 nM; that for `Cc1ccc(-n2nc(C(C)(C)C)cc2NC(=O)Nc2cccc(Oc3ccnc4ncc(=O)[nH]c34)c2)cc1` [AA-031, 1-(3-tert-butyl-1-p-tolyl-1H-pyrazol-5-yl)-3-(3-(2-oxo-1,2-dihydropyrido[2,3-b]pyrazin-8-yloxy)phenyl)urea] was < 1000 nM and 100 to 1000 nM. `O=C(Nc1ccc(Oc2ccnc3[nH]c(=O)c(=O)[nH]c23)cc1)Nc1ccc(Cl)c(C(F)(F)F)c1` [AA-050, 1-(4-chloro-3-(trifluoromethyl)phenyl)-3-(4-(2,3-dioxo-1,2,3,4-tetrahydropyrido[2,3-b]pyrazin-8-yloxy)phenyl)urea] registered a 50% inhibitory concentration (IC50) of less than 100 nM. In turn, `CC(C)(C)c1cccc(C(=O)Nc2cccc(Oc3ccnc4ncc(=O)[nH]c34)c2)c1` [AA-029, 3-tert-butyl-N-(3-(2-oxo-1,2-dihydropyrido[2,3-b]pyrazin-8-yloxy)phenyl)benzamide] displayed an IC50 of less than 100 nM. To `O=C(Nc1cc(C(F)(F)F)ccc1F)Nc1ccc(Oc2ccnc3[nH]c(=O)c(C(F)(F)F)nc23)c2ccccc12` [AA-082, 1-(2-fluoro-5-(trifluoromethyl)phenyl)-3-(4-(3-oxo-2-(trifluoromethyl)-3,4-dihydropyrido[2,3-b]pyrazin-8-yloxy)naphthalen-1-yl)urea] belongs 100 to 1000 nM. With `CSc1cc(Oc2ccnc3ncc(=O)[nH]c23)ccc1NC(=O)Nc1ccc(Cl)c(C(F)(F)F)c1` [AA-045, 1-(4-chloro-3-(trifluoromethyl)phenyl)-3-(2-(methylthio)-4-(2-oxo-1,2-dihydropyrido[2,3-b]pyrazin-8-yloxy)phenyl)urea], the concentration for half-maximal inhibition (IC50) was less than 100 nM. To `CN1CCN(c2cnc3c(Oc4ccc(NC(=O)Nc5cc(C(F)(F)F)ccc5F)c(F)c4)ccnc3n2)CC1` [AA-056, 1-(2-Fluoro-4-(3-(4-methylpiperazin-1-yl)pyrido[3,2-b]pyrazin-8-yloxy)phenyl)-3-(2-fluoro-5-(trifluoromethyl)phenyl)urea] belongs < 1000 nM and 100 to 1000 nM; to `O=C(Nc1ccc(Cl)c(C(F)(F)F)c1)Nc1ccc(Oc2ccnc3[nH]c(=O)cnc23)cc1F` [AA-025, 1-(4-Chloro-3-(trifluoromethyl)phenyl)-3-(2-fluoro-4-(3-oxo-3,4-dihydropyrido[2,3-b]pyrazin-8-yloxy)phenyl)urea], less than 100 nM; to `O=C(Nc1ccc(Oc2ccnc3[nH]c(=O)cnc23)cc1)Nc1ccc(Cl)c(C(F)(F)F)c1` [AA-020, 1-(4-chloro-3-(trifluoromethyl)phenyl)-3-(4-(3-oxo-3,4-dihydropyrido[2,3-b]pyrazin-8-yloxy)phenyl)urea], less than 100 nM.

In turn, `Nc1nc2c(Oc3ccc(NC(=O)Nc4cc(C(F)(F)F)ccc4F)c4ccccc34)ccnc2[nH]c1=O` [AA-015, 1-(4-(2-amino-3-oxo-3,4-dihydropyrido[2,3-b]pyrazin-8-yloxy)naphthalen-1-yl)-3-(2-fluoro-5-(trifluoromethyl)phenyl)urea] showed an IC50 of less than 100 nM.

For `Cc1nc2nccc(Oc3ccc(NC(=O)Nc4cc(C(C)(C)C)nn4-c4ccccc4)c4ccccc34)c2[nH]c1=O` [AA-035, 1-(3-tert-butyl-1-phenyl-1H-pyrazol-5-yl)-3-(4-(3-methyl-2-oxo-1,2-dihydropyrido[2,3-b]pyrazin-8-yloxy)naphthalen-1-yl)urea], the IC50 lay in the range of 100 to 1000 nM. As to `Cc1nc2nccc(Oc3ccc(NC(=O)Nc4cc(C(F)(F)F)ccc4F)c4ccccc34)c2[nH]c1=O` [AA-039, 1-(2-fluoro-5-(trifluoromethyl)phenyl)-3-(4-(3-methyl-2-oxo-1,2-dihydropyrido[2,3-b]pyrazin-8-yloxy)naphthalen-1-yl)urea], the concentration for half-maximal inhibition (IC50) is < 1000 nM and 100 to 1000 nM. The value for `CSc1cc(Oc2ccnc3ncc(=O)[nH]c23)ccc1NC(=O)Nc1cc(C(F)(F)F)ccc1F` [AA-046, 1-(2-fluoro-5-(trifluoromethyl)phenyl)-3-(2-(methylthio)-4-(2-oxo-1,2-dihydropyrido[2,3-b]pyrazin-8-yloxy)phenyl)urea] was < 1000 nM and 100 to 1000 nM. The value for `CC(C)(C)c1cc(NC(=O)c2cccc(Oc3ccnc4[nH]c(=O)cnc34)c2)n(-c2ccccc2)n1` [AA-001, N-(3-tert-butyl-1-phenyl-1H-pyrazol-5-yl)-3-(3-oxo-3,4-dihydropyrido[2,3-b]pyrazin-8-yloxy)benzamide] was < 1000 nM and 100 to 1000 nM.
